“And” between values parts separate entries of the source, which are not always exact repeats. Identical values can stand only once.
Assays:
[1] = system: glp-4(bn2) worms exposed to methicillin-resistant S. aureus strain MRSA131; assay: S. aureus infection assay (liquid); assay type: in vivo, Caenorhabditis elegans
Method: Enterococcus faecalis and Staphylococcus aureus are Gram-positive bacterial species frequently responsible for nosocomial infections ([24], [25]). These bacterial species readily infect C. elegans and liquid-based pathogenesis models have been developed for each ([26][–][28]). Sterile, young adult glp-4(bn2) worms were incubated with either E. faecalis or S. aureus and various concentrations of the five compounds. […] Importantly, P. aeruginosa, E. faecalis, and S. aureus use very different mechanisms to kill C. elegans (pyoverdine-mediated mitochondrial damage, gelatinase-mediated damage to the colonized intestine, and multi-toxin-mediated intestinal effacement and damage, respectively) ([29][–][33]). The ability of these compounds to rescue against multiple pathogens that utilize a diverse set of virulence factors and mechanisms of pathogenesis further supports the idea that at least a portion of these compounds’ activity is mediated by stimulating innate immunity.
FIG 2 A subset of LK molecules rescue against E. faecalis and S. aureus. […] Compounds were serially diluted 2-fold, and young adult glp-4(bn2) worms were incubated with the pathogen for 80 h (E. faecalis) or 96 h (S. aureus). The concentrations shown are based on the mean value for at least three replicates. (B and C) Percentages of dead C. elegans after exposure to E. faecalis (B) or S. aureus (C). A representative biological replicate is shown. Each condition included at least six wells per replicate, each well contained approximately 20 worms. Three biological replicates were performed. *, P < 0.05; **, P < 0.01; ***, P < 0.001. P values were calculated using Student’s t test. Error bars represent the standard error of the mean.
The S. aureus killing assay was performed as previously described with some changes ([26]). A single colony was used to inoculate a 5-ml aerobic culture of TSB. The following day, 100 µl of this culture was used to inoculate a second 10 ml of TSB culture wrapped with parafilm. Then, 384-well plates were made containing 10% TSB, and S. aureus from the second culture was resuspended in S Basal medium to a final OD of 0.04. Compounds were then serially diluted in a DMSO-S Basal solution to achieve the desired concentration in the wells with a 1% DMSO final concentration for all compounds. After 5 days, the worms were transferred to new plates using a 0.05% Tween solution to prevent S. aureus biofilm background fluorescence from obscuring dead worms. Subsequent washing, staining, imaging, and image analysis were performed identically to Pseudomonas liquid killing. EC values were defined as the minimum concentration that provided statistically significant rescue. At least three biological replicates were performed.

[2] = system: C. elegans host defense pathway genes; assay: nanoString expression of 115 immune- and stress-responsive genes; details: 100 μM LK molecules, 16 h
Method: The ratio of MIC to EC was determined for each of the 69 compounds.
Analysis of the expression of 115 immune- and stress-responsive genes using nanoString technology. Download Table S1, XLSX file, 0.02 MB.
For nanoString-based (nanoString Technologies, Seattle, WA) experiments, 2,000 wild-type, young adult worms were exposed to 100 μM LK molecules or DMSO control in S Basal medium in 6-well plates for 16 h. RNA purification and gene expression analysis were performed according to nanoString guidelines. Two biological replicates were tested for each condition.

[3] = system: glp-4(bn2) worms; assay: Longevity (life span) assay; details: 50 μM in NGM, E. coli OP50, Fig 3A
Method: To test the long-term toxicity of the hit compounds, life span assays were carried out by placing sterile, young adult glp-4(bn2) worms on NGM (standard nematode growth media, defined in Materials and Methods) seeded with Escherichia coli OP50. […] Sterile worms were used to eliminate the need to transfer worms between plates during life span assays, and we elected to use glp-4(bn2) to induce sterility instead of using wild-type worms sterilized with 5-fluoro-2′-deoxyuridine (FUDR) because the interaction of the compounds could generate artifacts during the long course of life span experiments.
Worms were scored daily by prodding. […] The viability was normalized to a DMSO solvent control. […] Error bars represent standard error of the mean.
Worms were picked onto agar plates seeded with 50 µl of concentrated E. coli OP50. Compounds were added to liquid agar before pouring plates. Worms were scored every day for death by prodding with a platinum wire. Worms that escaped the plate or died on the wall of the plate were censored. Each compound was tested in at least three biological replicates, each including 50 to 70 worms.

**Q.** For `O=c1cc(CNc2ccc(Br)cc2)nc2sccn12` [LK56], which “Need of MDT-15 for rescue (mdt-15(RNAi))” value ([1]; S. aureus, 32 µM) is on record?
**A.** Its value is “required”.

**Q.** And the “S. aureus EC” value ([1]; glp-4(bn2) worms, 96 h, ± 95% confidence interval)?
**A.** The value was 56 µM and 56 ± 12.8 µM.

**Q.** And the “B0024.4 expression, induction” value [2]?
**A.** Its value is 2.13 fold.

**Q.** And the “C02B4.2 nhr-17 expression, induction” value [2]?
**A.** The value was 1.97 fold.

**Q.** What about the “C06B3.7 expression, induction” value [2] of the same compound?
**A.** Its value is 1.14 fold.

**Q.** And the “C07G3.2 irg-1 expression, induction” value [2]?
**A.** Its value is 1.40 fold.

**Q.** And the “C12C8.1 hsp-70 expression, induction” value [2]?
**A.** The value was 1.04 fold.

**Q.** What about the “C15F1.7 sod-1 expression, induction” value [2] of the same compound?
**A.** Its value is 2.09 fold.

**Q.** What about the “C29F7.2 expression, induction” value [2] of the same compound?
**A.** The value was 14.61 fold.

**Q.** And the “C31A11.5 oac-6 expression, induction” value [2]?
**A.** Its value is 2.72 fold.

**Q.** And the “C32D5.12 expression, induction” value [2]?
**A.** The value was 1.17 fold.

**Q.** What about the “C32H11.1 expression, induction” value [2] of the same compound?
**A.** The value was 8.05 fold.

**Q.** What about the “C32H11.3 expression, induction” value [2] of the same compound?
**A.** Its value is 1.05 fold.

**Q.** And the “C34G6.4 pgp-2 expression, induction” value [2]?
**A.** Its value is 1.72 fold.

**Q.** And the “C37C3.10 expression, induction” value [2]?
**A.** The value was 3.56 fold.

**Q.** What about the “C37H5.8 hsp-6 expression, induction” value [2] of the same compound?
**A.** Its value is 1.45 fold.

**Q.** And the “C49G7.5 irg-2 expression, induction” value [2]?
**A.** The value was 2.13 fold.

**Q.** What about the “F08F8.5 numr-1 expression, induction” value [2] of the same compound?
**A.** Its value is 3.14 fold.

**Q.** What about the “F08H9.4 expression, induction” value [2] of the same compound?
**A.** The value was 1.04 fold.

**Q.** And the “F14F9.3 expression, induction” value [2]?
**A.** Its value is 1.84 fold.

**Q.** And the “F22B5.4 expression, induction” value [2]?
**A.** The value was 2.10 fold.

**Q.** And the “F22H10.2 expression, induction” value [2]?
**A.** The value was 1.87 fold.

**Q.** And the “F26A3.4 expression, induction” value [2]?
**A.** The value was 1.98 fold.

**Q.** And the “F35E8.11 cdr-1 expression, induction” value [2]?
**A.** Its value is 47.99 fold.

**Q.** And the “F35G2.4 phy-2 expression, induction” value [2]?
**A.** Its value is 1.43 fold.

**Q.** And the “F37B12.2 gcs-1 expression, induction” value [2]?
**A.** The value was 1.20 fold.

**Q.** What about the “F43E2.8 hsp-4 expression, induction” value [2] of the same compound?
**A.** The value was 1.17 fold.

**Q.** What about the “F44E5.5 expression, induction” value [2] of the same compound?
**A.** The value was 1.42 fold.

**Q.** What about the “F49F1.6 expression, induction” value [2] of the same compound?
**A.** The value was 1.76 fold.

**Q.** What about the “F49F1.7 expression, induction” value [2] of the same compound?
**A.** The value was 4.06 fold.

**Q.** And the “F49H6.13 expression, induction” value [2]?
**A.** Its value is 1.42 fold.

**Q.** And the “F54B8.4 expression, induction” value [2]?
**A.** The value was 3.28 fold.

**Q.** And the “F55G11.2 expression, induction” value [2]?
**A.** The value was 2.09 fold.

**Q.** And the “F59A7.1 clec-206 expression, induction” value [2]?
**A.** Its value is 12.55 fold.

**Q.** What about the “F59B10.4 expression, induction” value [2] of the same compound?
**A.** Its value is 1.53 fold.

**Q.** And the “H12D21.1 nspa-1 expression, induction” value [2]?
**A.** Its value is 2.13 fold.

**Q.** What about the “H23N18.1 ugt-13 expression, induction” value [2] of the same compound?
**A.** The value was 4.36 fold.

**Q.** And the “H23N18.3 ugt-8 expression, induction” value [2]?
**A.** Its value is 20.66 fold.

**Q.** And the “K05B2.4 expression, induction” value [2]?
**A.** The value was 2.91 fold.

**Q.** And the “K08F4.7 gst-4 expression, induction” value [2]?
**A.** Its value is 1.69 fold.

**Q.** What about the “K09A9.1 nipi-3 expression, induction” value [2] of the same compound?
**A.** The value was 2.25 fold.

**Q.** And the “K10D11.2 expression, induction” value [2]?
**A.** The value was 1.72 fold.

**Q.** What about the “K10G4.3 expression, induction” value [2] of the same compound?
**A.** The value was 1.36 fold.

**Q.** And the “R03D7.6 gst-5 expression, induction” value [2]?
**A.** Its value is 23.60 fold.

**Q.** What about the “R08H2.1 dhs-23 expression, induction” value [2] of the same compound?
**A.** The value was 182.18 fold.

**Q.** And the “R10E8.3 expression, induction” value [2]?
**A.** The value was 1.01 fold.

**Q.** And the “T19D12.3 expression, induction” value [2]?
**A.** Its value is 2.00 fold.

**Q.** What about the “T19H12.1 ugt-9 expression, induction” value [2] of the same compound?
**A.** The value was 6.54 fold.

**Q.** And the “T21E8.1 pgp-6 expression, induction” value [2]?
**A.** The value was 0.89 fold.

**Q.** And the “T22B7.3 expression, induction” value [2]?
**A.** Its value is 1.38 fold.

**Q.** And the “T24C4.4 expression, induction” value [2]?
**A.** The value was 1.93 fold.

**Q.** What about the “T24E12.5 expression, induction” value [2] of the same compound?
**A.** The value was 2.19 fold.

**Q.** And the “T27E4.3 hsp-16.48 expression, induction” value [2]?
**A.** The value was 1.38 fold.

**Q.** What about the “T27E4.8 hsp-16.1 expression, induction” value [2] of the same compound?
**A.** Its value is 1.30 fold.

**Q.** What about the “T27F6.8 expression, induction” value [2] of the same compound?
**A.** Its value is 2.98 fold.

**Q.** What about the “T28C12.4 expression, induction” value [2] of the same compound?
**A.** Its value is 7.67 fold.

**Q.** What about the “W02D9.10 expression, induction” value [2] of the same compound?
**A.** Its value is 2.27 fold.

**Q.** And the “Y22D7AL.5 hsp-60 expression, induction” value [2]?
**A.** The value was 1.56 fold.

**Q.** What about the “Y38E10A.15 nspe-7 expression, induction” value [2] of the same compound?
**A.** The value was 0.87 fold.

**Q.** And the “Y46H3A.2 hsp-16.41 expression, induction” value [2]?
**A.** Its value is 1.11 fold.

**Q.** And the “Y46H3A.3 hsp-16.2 expression, induction” value [2]?
**A.** The value was 1.21 fold.

**Q.** What about the “Y56A3A.33 expression, induction” value [2] of the same compound?
**A.** Its value is 2.67 fold.

**Q.** And the “Y58A7A.5 expression, induction” value [2]?
**A.** The value was 1.53 fold.

**Q.** What about the “ZC376.7 atfs-1 expression, induction” value [2] of the same compound?
**A.** The value was 1.86 fold.

**Q.** And the “ZC443.6 ugt-16 expression, induction” value [2]?
**A.** The value was 27.68 fold.

**Q.** What about the “ZK697.6 gst-21 expression, induction” value [2] of the same compound?
**A.** Its value is 8.40 fold.

**Q.** What about the “TD50 (time to 50% death), life span” value [3] of the same compound?
**A.** Its value is 7.8 days.
